Measurements taken from the supplement of paper PMC10307832.

Experiments:
Assay in all cases: relative viability (nuclei count vs DMSO), 5 days (fraction); higher = more cells survive
Tozasertib + Trametinib = compound: Cc1cc(Nc2cc(N3CCN(C)CC3)nc(Sc3ccc(NC(=O)C4CC4)cc3)n2)n[nH]1 [Tozasertib] + CC(=O)Nc1cccc(-n2c(=O)n(C3CC3)c(=O)c3c(Nc4ccc(I)cc4F)n(C)c(=O)c(C)c32)c1 [Trametinib] (partner 0.02 µM)
In short: (§1)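 Lung cancer cell lines in 1536-well plates were dosed by pin tool the day after seeding, either with one drug alone or with a fixed anchor-drug dose plus five library-drug doses (not always all listed) in √10 steps. After 5 days, cells were fixed and their nuclei stained in one step (final 0.05% Triton X-100, 1% formaldehyde, 1 ug/ml Hoechst), then counted on 4× images. Relative viability is the nuclei count in treated wells divided by that in vehicle wells. Values are medians of duplicate plates.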

Tozasertib + Palbociclib = compound: Cc1cc(Nc2cc(N3CCN(C)CC3)nc(Sc3ccc(NC(=O)C4CC4)cc3)n2)n[nH]1 [Tozasertib] + CC(=O)c1c(C)c2cnc(Nc3ccc(N4CCNCC4)cn3)nc2n(C2CCCC2)c1=O [Palbociclib] (partner 0.5 µM)
In short: as §1

Tozasertib + Crizotinib = compound: Cc1cc(Nc2cc(N3CCN(C)CC3)nc(Sc3ccc(NC(=O)C4CC4)cc3)n2)n[nH]1 [Tozasertib] + C[C@@H](Oc1cc(-c2cnn(C3CCNCC3)c2)cnc1N)c1c(Cl)ccc(F)c1Cl [Crizotinib] (partner 1 µM)
In short: as §1

Tozasertib + Decitabine = compound: Cc1cc(Nc2cc(N3CCN(C)CC3)nc(Sc3ccc(NC(=O)C4CC4)cc3)n2)n[nH]1 [Tozasertib] + Nc1ncn([C@H]2C[C@H](O)[C@@H](CO)O2)c(=O)n1 [Decitabine] (partner 2 µM)
In short: as §1

Tozasertib + Vorinostat = compound: Cc1cc(Nc2cc(N3CCN(C)CC3)nc(Sc3ccc(NC(=O)C4CC4)cc3)n2)n[nH]1 [Tozasertib] + O=C(CCCCCCC(=O)Nc1ccccc1)NO [Vorinostat] (partner 1 µM)
In short: as §1

PC-14
relative viability (Tozasertib + Trametinib; first compound 0.01265 µM): 0.767
relative viability (Tozasertib + Trametinib; first compound 0.04 µM): 0.994
relative viability (Tozasertib + Trametinib; first compound 0.1265 µM): 0.595
relative viability (Tozasertib + Palbociclib; first compound 0.01265 µM): 0.576
relative viability (Tozasertib + Palbociclib; first compound 0.04 µM): 0.526
relative viability (Tozasertib + Palbociclib; first compound 0.1265 µM): 0.474
relative viability (Tozasertib + Crizotinib; first compound 0.004 µM): 0.896
relative viability (Tozasertib + Crizotinib; first compound 0.01265 µM): 0.914
relative viability (Tozasertib + Crizotinib; first compound 0.04 µM): 1.02
relative viability (Tozasertib + Crizotinib; first compound 0.1265 µM): 0.884
relative viability (Tozasertib + Decitabine; first compound 0.01265 µM): 0.21
relative viability (Tozasertib + Decitabine; first compound 0.04 µM): 0.184
relative viability (Tozasertib + Decitabine; first compound 0.1265 µM): 0.128
relative viability (Tozasertib + Vorinostat; first compound 0.01265 µM): 0.741
relative viability (Tozasertib + Vorinostat; first compound 0.04 µM): 0.879
relative viability (Tozasertib + Vorinostat; first compound 0.1265 µM): 0.121

RERF-LC-KJ
relative viability (Tozasertib + Trametinib; first compound 0.004 µM): 0.807
relative viability (Tozasertib + Trametinib; first compound 0.01265 µM): 0.841
relative viability (Tozasertib + Trametinib; first compound 0.04 µM): 0.862
relative viability (Tozasertib + Palbociclib; first compound 0.004 µM): 1.14
relative viability (Tozasertib + Palbociclib; first compound 0.01265 µM): 0.973
relative viability (Tozasertib + Palbociclib; first compound 0.04 µM): 1.01
relative viability (Tozasertib + Palbociclib; first compound 0.1265 µM): 0.969
relative viability (Tozasertib + Crizotinib; first compound 0.004 µM): 0.815
relative viability (Tozasertib + Crizotinib; first compound 0.01265 µM): 0.792
relative viability (Tozasertib + Crizotinib; first compound 0.04 µM): 0.734
relative viability (Tozasertib + Crizotinib; first compound 0.1265 µM): 0.689
relative viability (Tozasertib + Decitabine; first compound 0.004 µM): 0.532
relative viability (Tozasertib + Decitabine; first compound 0.01265 µM): 0.592
relative viability (Tozasertib + Decitabine; first compound 0.04 µM): 0.645
relative viability (Tozasertib + Decitabine; first compound 0.1265 µM): 0.508
relative viability (Tozasertib + Vorinostat; first compound 0.01265 µM): 0.519
relative viability (Tozasertib + Vorinostat; first compound 0.04 µM): 0.654
relative viability (Tozasertib + Vorinostat; first compound 0.1265 µM): 0.478

SK-LU-1
relative viability (Tozasertib + Trametinib; first compound 0.004 µM): 0.447
relative viability (Tozasertib + Trametinib; first compound 0.01265 µM): 0.505
relative viability (Tozasertib + Trametinib; first compound 0.04 µM): 0.567
relative viability (Tozasertib + Trametinib; first compound 0.1265 µM): 0.461
relative viability (Tozasertib + Palbociclib; first compound 0.004 µM): 0.428
relative viability (Tozasertib + Palbociclib; first compound 0.01265 µM): 0.414
relative viability (Tozasertib + Palbociclib; first compound 0.04 µM): 0.476
relative viability (Tozasertib + Palbociclib; first compound 0.1265 µM): 0.469
relative viability (Tozasertib + Crizotinib; first compound 0.004 µM): 0.932
relative viability (Tozasertib + Crizotinib; first compound 0.01265 µM): 0.977
relative viability (Tozasertib + Crizotinib; first compound 0.1265 µM): 0.889
relative viability (Tozasertib + Decitabine; first compound 0.004 µM): 0.653
relative viability (Tozasertib + Decitabine; first compound 0.01265 µM): 0.678
relative viability (Tozasertib + Decitabine; first compound 0.1265 µM): 0.649
relative viability (Tozasertib + Vorinostat; first compound 0.004 µM): 0.893
relative viability (Tozasertib + Vorinostat; first compound 0.01265 µM): 0.788
relative viability (Tozasertib + Vorinostat; first compound 0.04 µM): 0.82
relative viability (Tozasertib + Vorinostat; first compound 0.1265 µM): 0.34

SK-MES-1
relative viability (Tozasertib + Trametinib; first compound 0.004 µM): 0.589
relative viability (Tozasertib + Trametinib; first compound 0.01265 µM): 0.557
relative viability (Tozasertib + Trametinib; first compound 0.04 µM): 0.713
relative viability (Tozasertib + Trametinib; first compound 0.1265 µM): 0.616
relative viability (Tozasertib + Palbociclib; first compound 0.004 µM): 0.317
relative viability (Tozasertib + Palbociclib; first compound 0.01265 µM): 0.32
relative viability (Tozasertib + Palbociclib; first compound 0.04 µM): 0.364
relative viability (Tozasertib + Palbociclib; first compound 0.1265 µM): 0.38
relative viability (Tozasertib + Crizotinib; first compound 0.004 µM): 1.04
relative viability (Tozasertib + Crizotinib; first compound 0.01265 µM): 0.929
relative viability (Tozasertib + Crizotinib; first compound 0.04 µM): 0.94
relative viability (Tozasertib + Crizotinib; first compound 0.1265 µM): 0.901
relative viability (Tozasertib + Decitabine; first compound 0.004 µM): 0.319
relative viability (Tozasertib + Decitabine; first compound 0.01265 µM): 0.376
relative viability (Tozasertib + Decitabine; first compound 0.04 µM): 0.434
relative viability (Tozasertib + Decitabine; first compound 0.1265 µM): 0.316
relative viability (Tozasertib + Vorinostat; first compound 0.004 µM): 1
relative viability (Tozasertib + Vorinostat; first compound 0.01265 µM): 1.1
relative viability (Tozasertib + Vorinostat; first compound 0.04 µM): 1.19
relative viability (Tozasertib + Vorinostat; first compound 0.1265 µM): 0.525

SW 1573
relative viability (Tozasertib + Trametinib; first compound 0.004 µM): 0.521
relative viability (Tozasertib + Trametinib; first compound 0.01265 µM): 0.652
relative viability (Tozasertib + Trametinib; first compound 0.04 µM): 0.569
relative viability (Tozasertib + Trametinib; first compound 0.1265 µM): 0.179
relative viability (Tozasertib + Palbociclib; first compound 0.004 µM): 0.455
relative viability (Tozasertib + Palbociclib; first compound 0.01265 µM): 0.355
relative viability (Tozasertib + Palbociclib; first compound 0.04 µM): 0.284
relative viability (Tozasertib + Palbociclib; first compound 0.1265 µM): 0.151
relative viability (Tozasertib + Crizotinib; first compound 0.004 µM): 0.782
relative viability (Tozasertib + Crizotinib; first compound 0.01265 µM): 0.706
relative viability (Tozasertib + Crizotinib; first compound 0.04 µM): 0.762
relative viability (Tozasertib + Crizotinib; first compound 0.1265 µM): 0.273
relative viability (Tozasertib + Decitabine; first compound 0.004 µM): 0.351
relative viability (Tozasertib + Decitabine; first compound 0.01265 µM): 0.463
relative viability (Tozasertib + Decitabine; first compound 0.04 µM): 0.544
relative viability (Tozasertib + Decitabine; first compound 0.1265 µM): 0.176
relative viability (Tozasertib + Vorinostat; first compound 0.004 µM): 0.624
relative viability (Tozasertib + Vorinostat; first compound 0.01265 µM): 0.599
relative viability (Tozasertib + Vorinostat; first compound 0.04 µM): 0.509
relative viability (Tozasertib + Vorinostat; first compound 0.1265 µM): 0.192

UMC-11
relative viability (Tozasertib + Trametinib; first compound 0.004 µM): 0.794
relative viability (Tozasertib + Trametinib; first compound 0.01265 µM): 0.699
relative viability (Tozasertib + Trametinib; first compound 0.04 µM): 0.653
relative viability (Tozasertib + Trametinib; first compound 0.1265 µM): 0.259
relative viability (Tozasertib + Palbociclib; first compound 0.004 µM): 0.345
relative viability (Tozasertib + Palbociclib; first compound 0.01265 µM): 0.317
relative viability (Tozasertib + Palbociclib; first compound 0.04 µM): 0.356
relative viability (Tozasertib + Palbociclib; first compound 0.1265 µM): 0.248
relative viability (Tozasertib + Crizotinib; first compound 0.004 µM): 0.478
relative viability (Tozasertib + Crizotinib; first compound 0.01265 µM): 0.568
relative viability (Tozasertib + Crizotinib; first compound 0.04 µM): 0.416
relative viability (Tozasertib + Crizotinib; first compound 0.1265 µM): 0.118
relative viability (Tozasertib + Decitabine; first compound 0.004 µM): 0.597
relative viability (Tozasertib + Decitabine; first compound 0.01265 µM): 0.499
relative viability (Tozasertib + Decitabine; first compound 0.04 µM): 0.548
relative viability (Tozasertib + Decitabine; first compound 0.1265 µM): 0.189
relative viability (Tozasertib + Vorinostat; first compound 0.004 µM): 0.408
relative viability (Tozasertib + Vorinostat; first compound 0.01265 µM): 0.327
relative viability (Tozasertib + Vorinostat; first compound 0.04 µM): 0.291
relative viability (Tozasertib + Vorinostat; first compound 0.1265 µM): 0.16
